From patent publication US7148253B2, “4-thio coumarins” (priority 2002, dated 2006)
“And” between values parts separate entries of the source, which are not always exact repeats. Equal values may be shown once. Read-outs that look alike come from different tables or passages of the source.

Tests used:
[1] = tested on: HCV RNA in stably HCV RNA-replicating cell line AVA5; assay: Primary in vitro anti-HCV screen: intracellular HCV RNA levels in AVA5 cells (branched DNA assay); format: cell-based, Hepatitis C virus; settings: for HCV % Control / HCV Copies/ml: AVA5, duplicate cultures
Protocol: Primary in vitro anti-HCV screen. The antiviral activity of test compounds were assayed in the stably HCV RNA-replicating cell line, AVA5, derived by transfection of the human hepatoblastoma cell line, Huh7 (Blight, et al., 2000, Science 290: 1972). The test compounds were added to dividing cultures once daily for three days. The media was changed with each addition of the compounds. […] Intracellular HCV RNA levels and cytotoxicity are assessed 24 hours after the last dose of compound.
(§1) Assays were conducted using a single dose of test compound. Duplicate cultures for HCV RNA levels (on 48-well plates) and triplicate cultures for cytotoxicity (on 96-well plates) are used.
(§2) Intracellular HCV RNA levels were measured using a commercial assay (Veresant®, Bayer Diagnostics, Inc. Ross, et al. (2002) J. Virol. Meth. 101:159–168, Quantitation of hepatitic C virus RNA by third generation branched DNA-based signal amplification assay). Cytotoxicity was measured using an established neutral red dye uptake assay (Korba, B. E. and J. L. Gerin. 1992. Use of a standardized cell culture assay to determine activities of nucleoside analogs against hepatitis B virus relication. Antivir. Res. 19:55–70). HCV RNA levels in the treated cultures are expressed as a percentage of the mean levels of RNA detected in untreated cultures. A level of 30% or less, HCV RNA relative to control cultures may be considered to be a positive antiviral effect. A level of 50% or less, neutral red dye uptake relative to control cultures may be considered to be a cytotoxic effect.

[2] = tested on: AVA5 cell line (derived from human hepatoblastoma cell line Huh7); assay: Primary screen cytotoxicity: neutral red dye uptake; format: cell-based; settings: AVA5
Protocol: (§3) Primary in vitro anti-HCV screen. The antiviral activity of test compounds were assayed in the stably HCV RNA-replicating cell line, AVA5, derived by transfection of the human hepatoblastoma cell line, Huh7 (Blight, et al., 2000, Science 290: 1972). The test compounds were added to dividing cultures once daily for three days. The media was changed with each addition of the compounds. Cultures generally start the assay at 30–50% confluence and reach confluence during the last day of treatment.
as §1, §2

AVA5 cell line [3] = assay: MTS Cell Viability
[4] = tested on: HCV RNA-replicating cell line AVA5; assay: Normalized Viral Assay; format: cell-based, Hepatitis C virus
Protocol: as §3

AVA5 cell line [5] = assay: ATP Cell Viability
AVA5 cells = assay: Secondary dose-response assay: cytotoxicity (CC50)
Protocol: (§4) Dividing cultures of AVA5 cells are treated once daily for three days (media is changed with each addition of compound) with 4 concentrations of test compound (2 cultures per concentration). […] Intracellular HCV RNA levels and cytotoxicity are assessed 24 hours following the last treatment as described for the primary assays. The 50% and 90% effective antiviral concentrations (EC50, EC90) and the 50% cytotoxic concentrations (CC50) are calculated and used to generate Selectivity Indexes (S.I., CC50/EC50). An S.I of 10, or greater, may be considered to be a selective antiviral effect.
(§5) The values presented in Table 6 were calculated by linear regression analysis using data from all treated cultures. The standard deviation was calculated using the error of regression generated from the linear regression analysis.

[6] = tested on: HCV replicons in AVA5 cell cultures; assay: Secondary in vitro anti-HCV dose-response assay: intracellular HCV RNA; design: Intracellular HCV RNA Levels: dose or concentration left out as unconfirmed; settings: for Intracellular HCV RNA Levels: normalized to β-actin RNA
Protocol: as §4, §5
Analysis of intracellular HCV RNA was performed 24 hours following the final treatment. A total of […] were treated a each concentration for each compound. HCV RNA levels were normalized to the level of β-actin RNA in each individual sample.

[7] = 10 μM, HCV RNA as percentage of untreated cultures
[8] = 10 μM, once daily for three days
[9] = AVA5, HCV RNA, linear regression
[10] = AVA5, values for α-interferon in IU/ml

Molecule | MTS Cell Viability (AVA5 cell line [3]; 1 μM) | MTS Cell Viability (AVA5 cell line [3]; 5 μM) | MTS Cell Viability (AVA5 cell line [3]; 10 μM) | Normalized Viral Assay ([4]; 1 μM) | Normalized Viral Assay ([4]; 5 μM) | Normalized Viral Assay ([4]; 10 μM) | ATP Cell Viability (AVA5 cell line [5]; 1 μM) | ATP Cell Viability (AVA5 cell line [5]; 5 μM) | ATP Cell Viability (AVA5 cell line [5]; 10 μM) | HCV % Control [1, 7] | other results
O=c1cc(Sc2ccccc2Cl)c2cc(F)ccc2o1 [compound 894] | 104.53 | 83.91 | 81.24 | 35.65 | 9.04 | 6.84 | 113.25 | 109.42 | 58.26 |  | HCV % Control ([1]; 10 μM, HCV RNA as percentage of untreated cultures, listed as VQ_894): 95 % Control and 84 % Control; HCV Copies/ml ([1]; 10 μM, once daily for three days, listed as VQ_894): 1277826 Copies/ml and 1128325 Copies/ml; Neutral Red % Control ([2]; 10 μM, dye uptake relative to untreated cultures, listed as VQ_894): 100 % Control and 101 % Control; Neutral Red O.D. ([2]; 10 μM, listed as VQ_894): 2.234 O.D. and 2.257 O.D.
Cc1cc(C)cc(Sc2c(Sc3ccc(F)cc3Cl)c3ccccc3oc2=O)c1 [compound 473] |  |  |  | 68.16 | 40.79 | 12.45 |  |  |  |  | 
O=c1cc(Sc2ccc(F)cc2Cl)c2cc(F)ccc2o1 [compound 899] | 106.10 | 90.22 | 85.37 | 40.10 | 10.66 | 10.32 | 102.77 | 112.43 | 105.60 |  | HCV % Control ([1]; 10 μM, HCV RNA as percentage of untreated cultures, listed as VQ_899): 66 % Control and 65 % Control; HCV Copies/ml ([1]; 10 μM, once daily for three days, listed as VQ_899): 886875 Copies/ml and 873484 Copies/ml; Neutral Red % Control ([2]; 10 μM, dye uptake relative to untreated cultures, listed as VQ_899): 100 % Control and 102 % Control; Neutral Red O.D. ([2]; 10 μM, listed as VQ_899): 2.237 O.D. and 2.286 O.D.
O=c1cc(Sc2cc(Cl)ccc2Cl)c2cc(F)ccc2o1 [compound 901] | 107.32 | 97.37 | 86.10 | 24.87 | 12.80 | 8.34 | 105.62 | 106.63 | 79.01 | 63 % Control | HCV Copies/ml ([1]; 10 μM, once daily for three days, listed as VQ_901): 851852 Copies/ml and 846803 Copies/ml; Neutral Red % Control ([2]; 10 μM, dye uptake relative to untreated cultures, listed as VQ_901): 102 % Control and 100 % Control; Neutral Red O.D. ([2]; 10 μM, listed as VQ_901): 2.287 O.D. and 2.241 O.D.
Cc1cc(C)cc(Sc2c(Sc3cccc(Cl)c3)c3ccccc3oc2=O)c1 [VQ_468] |  |  |  |  |  |  |  |  |  | 23 % Control and 24 % Control | HCV Copies/ml [1, 8]: 306102 Copies/ml and 318777 Copies/ml
Cc1cc(C)cc(Sc2c(Sc3cccc(Cl)c3)c3ccccc3oc2=O)c1 [compound 468] |  |  |  | 72.14 | 35.09 | 18.06 |  |  |  |  | CC50 (AVA5 cells): > 300 µM; S.I. (CC50/EC90) [6]: >250; Intracellular HCV RNA Levels [6]; 10: 1317765 ± 55645 genomic copies/cell; Intracellular HCV RNA Levels [6]; 30: 473805 ± 21625 genomic copies/cell; Intracellular HCV RNA Levels [6]; 100: 194410 ± 7620 genomic copies/cell; Intracellular HCV RNA Levels [6]; 300: 56535 ± 8005 genomic copies/cell; EC50 [6, 9]: 1.2 ± 0.1 µM; EC90 [6, 9]: 8.3 ± 0.6 µM
α-interferon |  |  |  |  |  |  |  |  |  |  | HCV % Control ([1]; 10 IU/ml, listed as rHu α-IFN): 5 % Control and 6 % Control; HCV Copies/ml ([1]; 10 IU/ml, listed as rHu α-IFN): 71460 Copies/ml and 85467 Copies/ml; effect on HCV RNA (treatment controls, in words) ([1]; at the control concentrations used): induced significant depressions of HCV RNA replication; approximate EC90 ([1]; positive antiviral control, no cytotoxicity): ~10 IU/ml; Neutral Red % Control ([2]; 10 IU/ml, listed as rHu α-IFN): 99 % Control and 103 % Control; Neutral Red O.D. ([2]; 10 IU/ml, listed as rHu α-IFN): 2.217 O.D. and 2.291 O.D.; CC50 (AVA5 cells; [10]): >10000^1,2 IU/ml; Intracellular HCV RNA Levels ([6]; 1.0 IU/ml): 1169765 ± 37135 genomic copies/cell; Intracellular HCV RNA Levels ([6]; 3.0 IU/ml): 329605 ± 26035 genomic copies/cell; Intracellular HCV RNA Levels ([6]; 10 IU/ml): 103060 ± 14470 genomic copies/cell; EC50 [6, 10]: 1.8 ± 0.2^1 IU/ml; EC90 [6, 10]: 8.2 ± 0.6^1 IU/ml; S.I. (CC50/EC90) ([6]; selectivity index, AVA5): >5556
COc1ccc2oc(=O)cc(Sc3ccccc3F)c2c1 [compound 824] |  | 94.56 | 84.15 |  | 52.29 | 17.28 |  | 91.28 | 75.61 |  | HCV % Control ([1]; 10 μM, HCV RNA as percentage of untreated cultures, listed as VQ_824): 101 % Control and 90 % Control; HCV Copies/ml ([1]; 10 μM, once daily for three days, listed as VQ_824): 1357786 Copies/ml and 1211659 Copies/ml; Neutral Red % Control ([2]; 10 μM, dye uptake relative to untreated cultures, listed as VQ_824): 99 % Control and 102 % Control; Neutral Red O.D. ([2]; 10 μM, listed as VQ_824): 2.214 O.D. and 2.274 O.D.
Cc1cc(C)cc(Sc2c(Sc3ccc(F)cc3Cl)c3ccccc3oc2=O)c1 [VQ_473] |  |  |  |  |  |  |  |  |  | 39 % Control | HCV Copies/ml [1, 8]: 529743 Copies/ml and 523506 Copies/ml
O=c1cc(Sc2ccccc2F)c2cc(F)ccc2o1 [compound 904] | 116.41 | 108.04 | 86.22 | 50.52 | 37.87 | 9.27 | 107.54 | 100.32 | 74.11 |  | HCV % Control ([1]; 10 μM, HCV RNA as percentage of untreated cultures, listed as VQ_904): 79 % Control and 75 % Control; HCV Copies/ml ([1]; 10 μM, once daily for three days, listed as VQ_904): 1072174 Copies/ml and 1013181 Copies/ml; Neutral Red % Control ([2]; 10 μM, dye uptake relative to untreated cultures, listed as VQ_904): 100 % Control and 101 % Control; Neutral Red O.D. ([2]; 10 μM, listed as VQ_904): 2.237 O.D. and 2.255 O.D.
COc1ccc2oc(=O)cc(Sc3ccc(F)cc3F)c2c1 [compound 830] | 112.38 | 101.06 | 98.85 | 87.63 | 46.87 | 40.35 | 106.44 | 97.11 | 104.41 |  | 
Cc1ccc(Sc2c(Sc3ccc(F)cc3Cl)c3ccccc3oc2=O)cc1C [compound 437] |  |  |  | 59.33 | 34.83 | 20.41 |  |  |  |  | 
O=c1oc2ccccc2c(Sc2ccc(Br)cc2)c1Sc1ccc(F)cc1 [compound 412] |  |  |  | 55.65 | 28.13 | 16.13 |  |  |  |  | 
Cc1ccc(Sc2c(Sc3ccc(F)cc3Cl)c3ccccc3oc2=O)cc1C [VQ_437] |  |  |  |  |  |  |  |  |  | 41 % Control and 38 % Control | HCV Copies/ml [1, 8]: 556515 Copies/ml and 507191 Copies/ml
O=c1oc2ccccc2c(Sc2ccc(Br)cc2)c1Sc1ccc(F)cc1 [VQ_412] |  |  |  |  |  |  |  |  |  | 54 % Control and 49 % Control | HCV Copies/ml [1, 8]: 726473 Copies/ml and 656755 Copies/ml
